Source: patent publication US11578055B2, “Triazacyclododecansulfonamide (“TCD”)-based protein secretion inhibitors” (KEZAR LIFE SCIENCES, priority 2018, dated 2023)
Where a name gives a salt, the structure may show the parent alone. Read-outs that look alike come from different tables or passages of the source.

Key:
[1] = test system: PD1 signal sequence plus 10 amino acids fused to Gaussia Luciferase (PD1-ss+10aa/Gaussia Luciferase); assay: Dox Induced PD1-ss-Gluc Assay; format: cell-based; conditions: 24 hr, read-out: 24 hr Dox Inducible PD1ssGluc 293FRT/TO: Mean IC50
Excerpt: FIp-In 293 T-REx™ cells were transfected with pcDNA™5/FRT/TO plasmid inserted with cDNA encoding Gaussia Luciferase fused to the 3′ end of cDNA encoding PD1 signal sequence plus 10 amino acids (N-[…]-C) (SEQ ID NO: 1). Transfected cells were selected for resistance to the selectable markers Hygromycin and Blasticidin to create a stable cell line that contained the PD1-ss+10aa/Gaussia Luciferase cDNA insert whose expression was regulated under the T-REx™ system. The day before assay, cells were trypsinized and plated in 384-well tissue culture plates. The next day, compound dilutions in DMSO/media containing doxycycline were added to the wells and incubated at 37° C., 5% CO2.
(§1) For chemical structures that include one or more stereoisomers, but are illustrated without indicating stereochemistry, the assay data refers to a mixture of stereoisomers.

[2] = test system: full length TNFα (amino acids 1-233) fused to Gaussia Luciferase; assay: Dox Induced TNFα-FL-Gluc Assay; format: cell-based; conditions: 24 hr, read-out: 24 hr Dox Inducible TNFaFLGluc 293FRT/TO: Mean IC50
Excerpt: FIp-In 293 T-REx™ cells were transfected with pcDNA™5/FRT/TO plasmid inserted with cDNA encoding Gaussia Luciferase fused to the 3′ end of cDNA encoding full length TNFα (amino acids 1-233). Transfected cells were selected for resistance to the selectable markers Hygromycin and Blasticidin to create a stable cell line that contained the TNFα-FL/Gaussia Luciferase cDNA insert whose expression was regulated under the T-REx™ system. The day before assay, cells were trypsinized and plated in 384-well tissue culture plates. The next day, compound dilutions in DMSO/media containing doxycycline were added to the wells and incubated at 37° C., 5% CO2.
as §1

[3] = test system: multiple myeloma cell line NCl-H929; assay: H929 Cell Viability Assay; format: cell-based, human; conditions: Homo sapiens, NCI-H929, 48 h
Method: The human multiple myeloma cell line NCl-H929 was cultured in Advanced RPMI 1640 media (Gibco®) supplemented with 6% fetal bovine serum, 2 mM Glutamine, and 1× Penicillin/Streptomycin. On the day of assay, cells were resuspended in RPMI 1640 media supplemented with 10% fetal bovine serum, 2 mM Glutamine, and 1× Penicillin/Streptmycin and plated in 384-well tissue culture plates and treated with compound dilutions in DMSO/media. Plates were incubated at 37° C., 5% CO2 for 48 hours. After 48 hours, Celltiter-Glo® (Promega) was added to each well and luciferase signal was quantified using Tecan Infinite M1000 Pro for cell viability determination.
as §1

[4] = test system: multiple myeloma cell line U266B1; assay: U266 Cell Viability Assay; format: cell-based, human; conditions: Homo sapiens, U-266, 48 hr
Method: The human multiple myeloma cell line U266B1 was cultured in RPMI 1640 media supplemented with 10% fetal bovine serum, 2 mM Glutamine, and 1× Penicillin/Streptomycin. Cells were plated in 384-well tissue culture plates and treated with compound dilutions in DMSO/media. Plates were incubated at 37° C., 5% CO2 for 48 hours. After 48 hours, Celltiter-Glo® (Promega) was added to each well and luciferase signal was quantified using Tecan Infinite M1000 Pro for cell viability determination.
For chemical structures that include one or more stereoisomers, but are illustrated without indicating stereochemistry, the assay data refers to a mixture of stereoisomers

[5] = In Vitro Microsome Stability Assay (human); format: in vitro ADME
Method: (§2) Potassium phosphate (423 μL of a 0.1 M solution) was added to 8-strip deep well tubes followed by human, mouse, rat, or monkey microsomes (25 μL of a 20 mg/mL solution). The tubes were then placed on ice and the test article (2 μL of a 0.25 mM solution in DMSO) was added. The mixture was preincubated at 37° C. for 3 to 5 minutes (shaking at 150 rpm) then the reaction was initiated by adding 50 μL NADPH. An aliquot of samples (100 μL) were collected at 0 and 30 min and 200 μL of an acetonitrile mixture containing IS (compound 914) was added to quench the reaction. After centrifuging for 10 min at 4000 rpm, a mixed solution of the 20 μL of the supernatant (20 μL) plus 100 μL ACN/H2O (1:1) were injected for LC-MS/MS analysis. Liver microsome stability is assessed by the % remaining of compound at 30 min which is calculated using the following equation: [(AUCanalyteT=30/AUCIS)/(AUCanalyteT=0/AUCIS)]*100
as §1

[6] = In Vitro Microsome Stability Assay (mouse); format: in vitro ADME
Method: as §2, §1

[7] = In Vitro Microsome Stability Assay (rat); format: in vitro ADME
Method: as §2, §1

[8] = In Vitro Microsome Stability Assay (monkey); format: in vitro ADME
Method: as §2, §1

[9] = H929, read-out: 48 hr H929 Viability Celltiter-Glo: Mean EC50
[10] = U266, read-out: 48 hr U266 Viability Celltiter-Glo: Mean EC50

| IC50 ([1]; 293FRT/TO) [µM] | IC50 ([2]; 293FRT/TO) [µM] | EC50 [3, 9] [µM] | EC50 [4, 10] [µM] | Liver Microsome Stability-% Left after 30 min w/ NADPH (%) Human ([5]; human, 30 min, NADPH) [%] | Liver Microsome Stability-% Left after 30 min w/ NADPH (%) Mouse ([6]; mouse, 30 min, NADPH) [%] | Liver Microsome Stability-% Left after 30 min w/ NADPH (%) Rat ([7]; rat, 30 min, NADPH) [%] | Liver Microsome Stability-% Left after 30 min w/ NADPH (%) Monkey ([8]; monkey, 30 min, NADPH) [%] | IC50 ([1]; Dox inducible, 293FRT/TO cells) [µM] | IC50 ([2]; Dox inducible, 293FRT/TO cells) [µM] | EC50 ([3]; H929, Celltiter-Glo) [µM] | EC50 ([4]; U266, Celltiter-Glo) [µM] | Liver Microsome Stability-% Left after 30 min w/ NADPH (%) Human ([5]; human liver microsomes, 30 min w/ NADPH) [%] | Liver Microsome Stability-% Left after 30 min w/ NADPH (%) Mouse ([6]; mouse liver microsomes, 30 min w/ NADPH) [%] | Liver Microsome Stability-% Left after 30 min w/ NADPH (%) Rat ([7]; rat liver microsomes, 30 min w/ NADPH) [%] | Liver Microsome Stability-% Left after 30 min w/ NADPH (%) Monkey ([8]; monkey liver microsomes, 30 min w/ NADPH) [%] | SMILES |
| --- | --- | --- | --- | --- | --- | --- | --- | --- | --- | --- | --- | --- | --- | --- | --- | --- |
| 0.0962 | 6.97 | 10.3 | > 25 | 62.5 | 43.3 | 54.6 | 53.2 | – | – | – | – | – | – | – | – | C=C1CN(S(=O)(=O)c2ccc(N(C)C)cc2)CCCN(CC2CCCCC2)CCCN(S(=O)(=O)N2CCC(c3ccc(Cl)cc3)CC2)C1 [A72, 4-[(5-{[4-(4-chlorophenyl)piperidin-1-yl]sulfonyl}-9-(cyclohexylmethyl)-3-methylidene-1,5,9-triazacyclododecan-1-yl)sulfonyl]-N,N-dimethylaniline] |
| 0.176 | > 25 | > 25 | > 25 | 60.6 | 68.3 | 67.3 | 65.8 | – | – | – | – | – | – | – | – | C=C1CN(S(=O)(=O)c2ccc(N(C)C)cc2)CCCN(CC2CCCCC2)CCCN(S(=O)(=O)N2CCN(c3cccc(Cl)c3)CC2)C1 [A84, 4-[(5-{[4-(3-chlorophenyl)piperazin-1-yl]sulfonyl}-9-(cyclohexylmethyl)-3-methylidene-1,5,9-triazacyclododecan-1-yl)sulfonyl]-N,N-dimethylaniline] |
| 0.156 | 6.44 | > 25 | > 25 | 50.5 | 55.1 | 57.1 | 57.1 | – | – | – | – | – | – | – | – | C=C1CN(S(=O)(=O)c2ccc(N(C)C)cc2)CCCN(CC2CCCCC2)CCCN(S(=O)(=O)N2CC=C(C3=CCCCC3)CC2)C1 [A68, 4-[(5-{[4-(cyclohex-1-en-1-yl)-1,2,3,6-tetrahydropyridin-1-yl]sulfonyl}-9-(cyclohexylmethyl)-3-methylidene-1,5,9-triazacyclododecan-1-yl)sulfonyl}-N,N-dimethylaniline] |
| – | – | – | – | – | – | – | – | 1.72 | > 25 | > 25 | > 25 | 0.35 | 0.55 | 1.46 | 0.23 | C=C1CN(S(=O)(=O)c2ccc(C)cc2)CCCN(CC2CCCCC2)CC(C)CN(S(=O)(=O)c2ccc(C)cc2)C1 (stereo not drawn) [B2, 1-(cyclohexylmethyl)-3-methyl-5,9-bis(4-methylbenzenesulfonyl)-7-methylidene-1,5,9-triazacyclododecane] |
| 0.259 | > 25 | > 25 | > 25 | 12.6 | 5.68 | 10.7 | 1.68 | – | – | – | – | – | – | – | – | C=C1CN(S(=O)(=O)c2ccc(N(C)C)cc2)CCCN(CC2CCCCC2)CCCN(S(=O)(=O)N2CCN(c3ccccc3)[C@@H](C)C2)C1 [A47, 4-{[9-(cyclohexylmethyl)-5-{[(3S)-3-methyl-4-phenylpiperazin-1-yl]sulfonyl}-3-methylidene-1,5,9-triazacyclododecan-1-yl]sulfonyl}-N,N-dimethylaniline] |
| 0.132 | 12.7 | > 25 | > 25 | 47.6 | 43.8 | 54 | 38 | – | – | – | – | – | – | – | – | CC1CN(S(=O)(=O)c2ccc(N(C)C)cc2)CCCN(CC2CCCCC2)CCCN(S(=O)(=O)N2CCC(c3ccccc3)CC2)C1 (stereo not drawn) [A44, 4-{[9-(cyclohexylmethyl)-3-methyl-5-[(4-phenylpiperidin-1-yl)sulfonyl]-1,5,9-triazacyclododecan-1-yl]sulfonyl}-N,N-dimethylaniline hydrochloride] |
| 0.493 | > 25 | > 25 | > 25 | 2.52 | 2.15 | 0.98 | 2.07 | – | – | – | – | – | – | – | – | COC1CCN(S(=O)(=O)N2CCCN(CC3CCCCC3)CCCN(S(=O)(=O)c3ccc(N(C)C)cc3)CC3(CC3)C2)CC1 [A27, 4-{[9-(cyclohexylmethyl)-13-[(4-methoxypiperidin-1-yl)sulfonyl]-5,9,13-triazaspiro[2.11]tetradecan-5-yl]sulfonyl}-N,N-dimethylaniline] |
| 0.0265 | 0.952 | 1.91 | > 25 | 33.8 | 34.6 | 42.4 | 30.5 | – | – | – | – | – | – | – | – | C=C1CN(S(=O)(=O)c2ccc(N(C)C)cc2)CCCN(CC2CCCCC2)CCCN(S(=O)(=O)N2CCc3c(Cl)cccc3C2)C1 [A54, 4-({5-[(5-chloro-1,2,3,4-tetrahydroisoquinolin-2-yl)sulfonyl]-9-(cyclohexylmethyl)-3-methylidene-1,5,9-triazacyclododecan-1-yl}sulfonyl)-N,N-dimethylaniline] |
| 4.75 | > 25 | 24.1 | > 25 | 0.53 | 0.12 | 0.17 | 0.44 | – | – | – | – | – | – | – | – | C=C1CN(S(=O)(=O)CC)CCCN(CC2CCCCC2)CCCN(S(=O)(=O)c2ccc(C)cc2)C1 [A6, 9-(cyclohexylmethyl)-1-(ethanesulfonyl)-5-(4-methylbenzenesulfonyl)-3-methylidene-1,5,9-triazacyclododecane] |
